Reference: ChEMBL document CHEMBL1146522, “Two new xanthone derivatives from the algicolous marine fungus Wardomyces anomalus” (2003)
Calls of active or inactive are those of the source. The calls are words filed in the database; no cut-off is given here.

Columns and labels:
[1] = Antioxidant activity assessed as inhibition of peroxidation of linolenic acid at 7.4 ug/mL by TBARS assay; type: functional
[2] = Antioxidant activity assessed as inhibition of peroxidation of linolenic acid at 37 ug/mL by TBARS assay; type: functional
[3] = tested on: Radical scavenging activity; assay: Antioxidant activity assessed as DPPH radical scavenging activity at 25 ug/mL; type: functional
[4] = tested on: Radical scavenging activity; assay: Antioxidant activity assessed as DPPH radical scavenging activity at 50 ug/mL; type: functional
[5] = tested on: Radical scavenging activity; assay: Antioxidant activity assessed as DPPH radical scavenging activity at 100 ug/mL; type: functional
[6] = tested on: Radical scavenging activity; assay: Antioxidant activity assessed as DPPH radical scavenging activity at 500 ug/mL; type: functional
[7] = target: Tyrosine-protein kinase Lck (Homo sapiens) (UniProt P06239); assay: Inhibition of p56-LCK assessed as residual enzyme activity at 200 ug/mL
[8] = target: Human immunodeficiency virus type 1 reverse transcriptase (Human immunodeficiency virus 1) (UniProt Q72547); assay: Inhibition of HIV1 reverse transcriptase assessed as residual enzyme activity at 66 ug/mL
Escherichia coli = assay: Antibacterial activity against Escherichia coli 50 ug/disk by agar diffusion method; type: functional, organism-based
Priestia megaterium = assay: Antibacterial activity against Bacillus megaterium 50 ug/disk by agar diffusion method; type: functional
Microbotryum violaceum = assay: Antifungal activity against Microbotryum violaceum 50 ug/disk by agar diffusion method; type: functional
[9] = tested on: Aspergillus pseudoglaucus; assay: Antifungal activity against Eurotium repens 50 ug/disk by agar diffusion method; type: functional
Mycotypha microspora = assay: Antifungal activity against Mycotypha microspora 50 ug/disk by agar diffusion method; type: functional, organism-based
[Chlorella] fusca = Antimicrobial activity against Chlorella fusca 50 ug/disk by agar diffusion method; type: functional, organism-based; conditions: Scenedesmus fuscus

Sequence of Tyrosine-protein kinase Lck (Homo sapiens) (P06239 2-509 limits assumed): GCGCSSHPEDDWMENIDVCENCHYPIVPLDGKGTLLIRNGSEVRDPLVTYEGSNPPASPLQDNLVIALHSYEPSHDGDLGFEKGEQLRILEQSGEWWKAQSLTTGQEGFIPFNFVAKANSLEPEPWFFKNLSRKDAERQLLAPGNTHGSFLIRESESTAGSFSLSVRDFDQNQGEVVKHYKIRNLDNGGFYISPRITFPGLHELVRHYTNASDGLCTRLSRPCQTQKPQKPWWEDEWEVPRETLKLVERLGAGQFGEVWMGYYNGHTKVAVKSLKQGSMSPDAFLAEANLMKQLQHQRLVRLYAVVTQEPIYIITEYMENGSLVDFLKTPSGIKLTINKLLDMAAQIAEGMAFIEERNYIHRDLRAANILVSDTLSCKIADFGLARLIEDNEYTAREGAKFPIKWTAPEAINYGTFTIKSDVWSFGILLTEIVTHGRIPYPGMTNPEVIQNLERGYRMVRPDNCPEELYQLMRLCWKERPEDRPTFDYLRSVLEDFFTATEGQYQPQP

Structure (SMILES)	inhibition [1] [%]	inhibition [2] [%]	Activity [3] [%]	Activity [4] [%]	Activity [5] [%]	Activity [6] [%]	Activity [7] [%]	Activity [8] [%]	Activity (Escherichia coli)	Activity (Priestia megaterium)	Activity (Microbotryum violaceum)	Activity [9]	Activity (Mycotypha microspora)	Activity ([Chlorella] fusca)	inhibition zone (IZ) (Microbotryum violaceum) [mm]	inhibition zone (IZ) (Priestia megaterium) [mm]	inhibition zone (IZ) [9] [mm]
Cc1cc(C(C)(C)C)c(O)c(C(C)(C)C)c1	42.8	48.5	73.4	83.1	89.1	87.8											
O=C(O)c1ccc(CO)o1	2.6	7.4	30.7	53.4	87.7	97	0	98.3	inactive	inactive	inactive	inactive	inactive	inactive			
Cc1c(O)c(O)cc2oc3cc(O)cc(O)c3c(=O)c12 [ANOMALIN A]	17	37	94.7	94.8	95.2	95.4	0	82.2	inactive	inactive				inactive	1		
Cc1cc(O)cc2oc3cc(O)cc(O)c3c(=O)c12 [NORLICHEXANTHONE]	-7.4		6.2	12.9	25.3	90.6	0	82.9						inactive		1	1
